# Experimental data taken from the NIST ThermoML archive (doi:10.1021/je050316s).
# Numbers after ± are expanded uncertainties.
# What was measured:
# [1] = xn = mol fraction of the nth substance listed; conditions: 303.15 K, 101.33 kPa, Liquid
# [2] = Liquid; for mass density: 101.33 kPa
# [3] = refractive index (Na D-line) (dimensionless); conditions: 101.33 kPa, Liquid, Standard Abbe refractometry
# [4] = activity coefficient (dimensionless); of the first substance listed, at infinite dilution; xn = mol fraction of the nth substance listed; conditions: Liquid, Differential ebulliometry, x1 = 0
smiles,measurement,setting,value
CCCCCCCCCCC [undecane] + NC1CCCCC1,mass density,[1]; x2 = 0,732.93 ± 0.36 kg/m3
same,mass density,[1]; x2 = 0.1,738.82 ± 0.35 kg/m3
same,mass density,[1]; x2 = 0.2172,747 ± 0.34 kg/m3
same,mass density,[1]; x2 = 0.3066,754.16 ± 0.34 kg/m3
same,mass density,[1]; x2 = 0.4011,762.69 ± 0.33 kg/m3
same,mass density,[1]; x2 = 0.5005,772.99 ± 0.32 kg/m3
same,mass density,[1]; x2 = 0.5997,784.83 ± 0.3 kg/m3
same,mass density,[1]; x2 = 0.7005,798.79 ± 0.29 kg/m3
same,mass density,[1]; x2 = 0.7998,814.98 ± 0.27 kg/m3
same,mass density,[1]; x2 = 0.8998,834.57 ± 0.26 kg/m3
NC1CCCCC1 [cyclohexylamine] + CCCCCCCCCCC,mass density,[1]; x1 = 1,858.2 ± 0.23 kg/m3
CCCCCCCC [octane],mass density,[2]; 298.15 K,698.49 ± 0.39 kg/m3
same,mass density,[2]; 303.15 K,694.67 ± 0.39 kg/m3
same,refractive index,[3]; 298.15 K,1.3946 ± 0.0004
O [water],refractive index,[3]; 293.15 K,1.3336 ± 0.0004
Cc1ccccc1 [toluene],mass density,[2]; 293.15 K,866.78 ± 0.19 kg/m3
same,vapor or sublimation pressure,[2]; 333.15 K,18.56 ± 0.56 kPa
same,vapor or sublimation pressure,[2]; 363.15 K,54.49 ± 0.72 kPa
same,refractive index,[3]; 293.15 K,1.496 ± 0.0004
CCCCCCC [heptane] + NC1CCCCC1,mass density,[1]; x2 = 0,675.32 ± 0.44 kg/m3
NC1CCCCC1 [cyclohexylamine] + Nc1ccccc1,mass density,[1]; x1 = 0.1161,992.51 ± 0.25 kg/m3
same,mass density,[1]; x1 = 0.1936,979.58 ± 0.23 kg/m3
same,mass density,[1]; x1 = 0.281,965.35 ± 0.22 kg/m3
same,mass density,[1]; x1 = 0.3837,949.2 ± 0.21 kg/m3
same,mass density,[1]; x1 = 0.4907,932.82 ± 0.21 kg/m3
same,mass density,[1]; x1 = 0.5932,917.38 ± 0.21 kg/m3
same,mass density,[1]; x1 = 0.7087,900.24 ± 0.21 kg/m3
same,mass density,[1]; x1 = 0.7738,890.69 ± 0.21 kg/m3
same,mass density,[1]; x1 = 0.8759,875.75 ± 0.22 kg/m3
same,mass density,[1]; x1 = 1,858.2 ± 0.23 kg/m3
same,activity coefficient,[4]; 383.15 K,0.84 ± 0.05
same,activity coefficient,[4]; 393.15 K,0.94 ± 0.06
same,activity coefficient,[4]; 403.15 K,1.03 ± 0.06
CCCCCCCCC [nonane] + NC1CCCCC1,mass density,[1]; x2 = 0,710.05 ± 0.38 kg/m3
CCCCCCCCCC [decane],mass density,[2]; 298.15 K,726.55 ± 0.38 kg/m3
same,mass density,[2]; 303.15 K,722.54 ± 0.38 kg/m3
same,refractive index,[3]; 298.15 K,1.4092 ± 0.0004
Nc1ccccc1 [aniline] + NC1CCCCC1,mass density,[1]; x2 = 0,1012.94 ± 0.27 kg/m3
Nc1ccccc1 [aniline],mass density,[2]; 293.15 K,1021.72 ± 0.27 kg/m3
same,mass density,[2]; 303.15 K,1012.94 ± 0.27 kg/m3
same,refractive index,[3]; 293.15 K,1.5862 ± 0.0004
NC1CCCCC1 [cyclohexylamine] + O,mass density,[1]; x1 = 0.1002,956.7 ± 0.15 kg/m3
same,mass density,[1]; x1 = 0.197,935.34 ± 0.16 kg/m3
same,mass density,[1]; x1 = 0.2237,930.93 ± 0.16 kg/m3
same,mass density,[1]; x1 = 0.3021,919.43 ± 0.17 kg/m3
same,mass density,[1]; x1 = 0.397,908.71 ± 0.18 kg/m3
same,mass density,[1]; x1 = 0.5016,897.85 ± 0.19 kg/m3
same,mass density,[1]; x1 = 0.6037,888.39 ± 0.2 kg/m3
same,mass density,[1]; x1 = 0.6931,880.7 ± 0.21 kg/m3
same,mass density,[1]; x1 = 0.7801,873.76 ± 0.21 kg/m3
same,mass density,[1]; x1 = 0.9004,864.97 ± 0.22 kg/m3
same,mass density,[1]; x1 = 1,858.2 ± 0.23 kg/m3
NC1CCCCC1 [cyclohexylamine] + CCc1ccccc1,activity coefficient,[4]; 353.15 K,1.13 ± 0.07
same,activity coefficient,[4]; 373.15 K,1.09 ± 0.07
same,activity coefficient,[4]; 393.15 K,1.06 ± 0.06
CCCCCCCCC [nonane],mass density,[2]; 293.15 K,719.13 ± 0.38 kg/m3
same,mass density,[2]; 303.15 K,710.05 ± 0.38 kg/m3
same,refractive index,[3]; 293.15 K,1.4055 ± 0.0004
NC1CCCCC1 [cyclohexylamine] + Cc1ccccc1,activity coefficient,[4]; 353.15 K,1.19 ± 0.07
same,activity coefficient,[4]; 373.15 K,1.12 ± 0.07
CCCCCCCCCC [decane] + NC1CCCCC1,mass density,[1]; x2 = 0,722.54 ± 0.38 kg/m3
CCc1ccccc1 [ethylbenzene],mass density,[2]; 298.15 K,862.59 ± 0.19 kg/m3
same,refractive index,[3]; 293.15 K,1.496 ± 0.0004
NC1CCCCC1 [cyclohexylamine] + CCCCCCCCC,mass density,[1]; x1 = 0.0998,718.79 ± 0.37 kg/m3
same,mass density,[1]; x1 = 0.1994,728.47 ± 0.36 kg/m3
same,mass density,[1]; x1 = 0.301,739.41 ± 0.35 kg/m3
same,mass density,[1]; x1 = 0.401,751.43 ± 0.34 kg/m3
same,mass density,[1]; x1 = 0.4998,764.51 ± 0.32 kg/m3
same,mass density,[1]; x1 = 0.6006,779.38 ± 0.31 kg/m3
same,mass density,[1]; x1 = 0.7,795.69 ± 0.29 kg/m3
same,mass density,[1]; x1 = 0.7955,813.15 ± 0.28 kg/m3
same,mass density,[1]; x1 = 0.8999,834.62 ± 0.26 kg/m3
same,mass density,[1]; x1 = 1,858.2 ± 0.23 kg/m3
NC1CCCCC1 [cyclohexylamine] + CCCCCCCCCC,mass density,[1]; x1 = 0.1004,729.74 ± 0.37 kg/m3
same,mass density,[1]; x1 = 0.2003,737.86 ± 0.36 kg/m3
same,mass density,[1]; x1 = 0.3002,746.97 ± 0.35 kg/m3
same,mass density,[1]; x1 = 0.3994,757.29 ± 0.34 kg/m3
same,mass density,[1]; x1 = 0.4998,768.9 ± 0.32 kg/m3
same,mass density,[1]; x1 = 0.5996,782.09 ± 0.31 kg/m3
same,mass density,[1]; x1 = 0.6996,797.14 ± 0.29 kg/m3
same,mass density,[1]; x1 = 0.8002,814.52 ± 0.28 kg/m3
same,mass density,[1]; x1 = 0.9006,834.67 ± 0.26 kg/m3
same,mass density,[1]; x1 = 1,858.2 ± 0.23 kg/m3
CCCCCCCC [octane] + NC1CCCCC1,mass density,[1]; x2 = 0,694.67 ± 0.39 kg/m3
same,activity coefficient,[4]; 353.15 K,1.36 ± 0.08
same,activity coefficient,[4]; 373.15 K,1.29 ± 0.08
same,activity coefficient,[4]; 393.15 K,1.2 ± 0.07
NC1CCCCC1 [cyclohexylamine] + CCCCCCC,mass density,[1]; x1 = 0.1009,689.34 ± 0.43 kg/m3
same,mass density,[1]; x1 = 0.1999,703.99 ± 0.41 kg/m3
same,mass density,[1]; x1 = 0.3006,719.71 ± 0.39 kg/m3
same,mass density,[1]; x1 = 0.3983,735.92 ± 0.37 kg/m3
same,mass density,[1]; x1 = 0.5,753.83 ± 0.35 kg/m3
same,mass density,[1]; x1 = 0.5999,772.37 ± 0.33 kg/m3
same,mass density,[1]; x1 = 0.6989,791.79 ± 0.31 kg/m3
same,mass density,[1]; x1 = 0.7996,812.68 ± 0.28 kg/m3
same,mass density,[1]; x1 = 0.8993,834.6 ± 0.26 kg/m3
same,mass density,[1]; x1 = 1,858.2 ± 0.23 kg/m3
CCc1ccccc1 [ethylbenzene] + NC1CCCCC1,activity coefficient,[4]; 353.15 K,1.18 ± 0.07
same,activity coefficient,[4]; 373.15 K,1.16 ± 0.07
same,activity coefficient,[4]; 393.15 K,1.13 ± 0.07
NC1CCCCC1 [cyclohexylamine] + CCCCCCCC,mass density,[1]; x1 = 0.1036,705.94 ± 0.38 kg/m3
same,mass density,[1]; x1 = 0.2003,717.44 ± 0.37 kg/m3
same,mass density,[1]; x1 = 0.3006,730.4 ± 0.36 kg/m3
same,mass density,[1]; x1 = 0.4085,745.58 ± 0.34 kg/m3
same,mass density,[1]; x1 = 0.5001,759.5 ± 0.33 kg/m3
same,mass density,[1]; x1 = 0.5991,775.85 ± 0.31 kg/m3
same,mass density,[1]; x1 = 0.6998,793.85 ± 0.29 kg/m3
same,mass density,[1]; x1 = 0.7503,803.55 ± 0.28 kg/m3
same,mass density,[1]; x1 = 0.8018,813.83 ± 0.27 kg/m3
same,mass density,[1]; x1 = 0.8502,823.95 ± 0.27 kg/m3
same,mass density,[1]; x1 = 1,858.2 ± 0.23 kg/m3
same,activity coefficient,[4]; 353.15 K,1.61 ± 0.1
same,activity coefficient,[4]; 373.15 K,1.5 ± 0.09
same,activity coefficient,[4]; 393.15 K,1.42 ± 0.09
Cc1ccccc1 [toluene] + NC1CCCCC1,activity coefficient,[4]; 353.15 K,1.14 ± 0.07
same,activity coefficient,[4]; 373.15 K,1.13 ± 0.07
same,activity coefficient,[4]; 393.15 K,1.06 ± 0.06
